Experiments:
[1] = system: Taleromyces macrosporus CBS 130.89; conditions: 2.5 ppm natamycin, heat treatment, apple juice; cited from earlier work
[2] = system: Talaromyces emersonii (CBS 236.58); test: Heat treatment of Talaromyces emersonii spores in ice tea with natamycin, visual growth; type: cell-based; design: key to growth or no growth: growth (+); no growth (−)
Description: Commercially available ice tea (Lipton, peach flavor, non-carbonated, 1.5 L) was adjusted to high water hardness by adding 1 ml of a solution of 39 g CaCl2 and 27 g MgCl2 added to 934 g water. ⅓ of this ice tea preparation (the pH of which was 3.15) was left as-such, ⅓ of the preparation was enriched with 5 ppm natamycin and ⅓ of the preparation was enriched with 10 ppm natamycin. Samples of 5 ml were made from each preparation in 15 ml sterile plastic tubes. Of each preparation 8 samples were pre-heated to the desired pasteurization temperature using a water bath. Temperatures used were RT, 60, 65, 70, 75, 80, 85 and 90° C. When the desired temperature was reached, 100 μl of a 2500 spores/ml spore suspension of Aspergillus niger ATCC 9029AA was added to each tube. Subsequently, the samples were kept for 30 seconds at the temperature in question in the water bath. Next, the samples were cooled on ice to a temperature of 25° C. Samples were incubated at 25° C. and visually examined for growth (formation of mold flakes or turbidity) for two months. Additionally, samples were enumerated according to ISO protocol 21527-1.2008 on day 0 (before heat treatment) and day 1 (after heat treatment) to count immediate loss of viability. […] For the results, see Table 1. […] Example 1 was repeated however with Talaromyces emersonii (CBS 236.58, 1000 spores/ml) instead of Aspergillus niger.

C[C@@H]1C/C=C/C=C/C=C/C=C/[C@H](O[C@@H]2O[C@H](C)[C@@H](O)[C@H](N)[C@@H]2O)C[C@@H]2O[C@](O)(C[C@@H](O)C[C@H]3O[C@@H]3/C=C/C(=O)O1)C[C@H](O)[C@H]2C(=O)O [natamycin]
duration of prevention of germination [1]: 4 days
growth or no growth ([2]; 60°C, 5 ppm, day 1): −
growth or no growth ([2]; 60°C, 5 ppm, day 2): −
growth or no growth ([2]; 60°C, 5 ppm, day 3): −
growth or no growth ([2]; 60°C, 5 ppm, day 4): −
growth or no growth ([2]; 60°C, 5 ppm, day 5): −
growth or no growth ([2]; 60°C, 5 ppm, day 6): −
growth or no growth ([2]; 60°C, 5 ppm, day 7): −
growth or no growth ([2]; 60°C, 5 ppm, day 8): −
growth or no growth ([2]; 60°C, 5 ppm, day 9): −
growth or no growth ([2]; 60°C, 5 ppm, day 10): −
growth or no growth ([2]; 60°C, 5 ppm, day 11): −
growth or no growth ([2]; 60°C, 5 ppm, day 12): −
growth or no growth ([2]; 60°C, 5 ppm, day 13): −
growth or no growth ([2]; 60°C, 5 ppm, day 14): −
growth or no growth ([2]; 60°C, 10 ppm, day 1): −
growth or no growth ([2]; 60°C, 10 ppm, day 2): −
growth or no growth ([2]; 60°C, 10 ppm, day 3): −
growth or no growth ([2]; 60°C, 10 ppm, day 4): −
growth or no growth ([2]; 60°C, 10 ppm, day 5): −
growth or no growth ([2]; 60°C, 10 ppm, day 6): −
growth or no growth ([2]; 60°C, 10 ppm, day 7): −
growth or no growth ([2]; 60°C, 10 ppm, day 8): −
growth or no growth ([2]; 60°C, 10 ppm, day 9): −
growth or no growth ([2]; 60°C, 10 ppm, day 10): −
growth or no growth ([2]; 60°C, 10 ppm, day 11): −
growth or no growth ([2]; 60°C, 10 ppm, day 12): −
growth or no growth ([2]; 60°C, 10 ppm, day 13): −
growth or no growth ([2]; 60°C, 10 ppm, day 14): −
growth or no growth ([2]; 65°C, 5 ppm, day 1): −
growth or no growth ([2]; 65°C, 5 ppm, day 2): −
growth or no growth ([2]; 65°C, 5 ppm, day 3): −
growth or no growth ([2]; 65°C, 5 ppm, day 4): +
growth or no growth ([2]; 65°C, 5 ppm, day 5): +
growth or no growth ([2]; 65°C, 5 ppm, day 6): +
growth or no growth ([2]; 65°C, 5 ppm, day 7): +
growth or no growth ([2]; 65°C, 5 ppm, day 8): +
growth or no growth ([2]; 65°C, 5 ppm, day 9): +
growth or no growth ([2]; 65°C, 5 ppm, day 10): +
growth or no growth ([2]; 65°C, 5 ppm, day 11): +
growth or no growth ([2]; 65°C, 5 ppm, day 12): +
growth or no growth ([2]; 65°C, 5 ppm, day 13): +
growth or no growth ([2]; 65°C, 5 ppm, day 14): +
growth or no growth ([2]; 65°C, 10 ppm, day 1): −
growth or no growth ([2]; 65°C, 10 ppm, day 2): −
growth or no growth ([2]; 65°C, 10 ppm, day 3): −
growth or no growth ([2]; 65°C, 10 ppm, day 4): −
growth or no growth ([2]; 65°C, 10 ppm, day 5): −
growth or no growth ([2]; 65°C, 10 ppm, day 6): −
growth or no growth ([2]; 65°C, 10 ppm, day 7): −
growth or no growth ([2]; 65°C, 10 ppm, day 8): −
growth or no growth ([2]; 65°C, 10 ppm, day 9): −
growth or no growth ([2]; 65°C, 10 ppm, day 10): −
growth or no growth ([2]; 65°C, 10 ppm, day 11): −
growth or no growth ([2]; 65°C, 10 ppm, day 12): −
growth or no growth ([2]; 65°C, 10 ppm, day 13): −
growth or no growth ([2]; 65°C, 10 ppm, day 14): −
growth or no growth ([2]; 70°C, 5 ppm, day 1): −
growth or no growth ([2]; 70°C, 5 ppm, day 2): −
growth or no growth ([2]; 70°C, 5 ppm, day 3): −
growth or no growth ([2]; 70°C, 5 ppm, day 4): −
growth or no growth ([2]; 70°C, 5 ppm, day 5): −
growth or no growth ([2]; 70°C, 5 ppm, day 6): −
growth or no growth ([2]; 70°C, 5 ppm, day 7): −
growth or no growth ([2]; 70°C, 5 ppm, day 8): −
growth or no growth ([2]; 70°C, 5 ppm, day 9): −
growth or no growth ([2]; 70°C, 5 ppm, day 10): −
growth or no growth ([2]; 70°C, 5 ppm, day 11): −
growth or no growth ([2]; 70°C, 5 ppm, day 12): −
growth or no growth ([2]; 70°C, 5 ppm, day 13): −
growth or no growth ([2]; 70°C, 5 ppm, day 14): −
growth or no growth ([2]; 70°C, 10 ppm, day 1): −
growth or no growth ([2]; 70°C, 10 ppm, day 2): −
growth or no growth ([2]; 70°C, 10 ppm, day 3): −
growth or no growth ([2]; 70°C, 10 ppm, day 4): −
growth or no growth ([2]; 70°C, 10 ppm, day 5): −
growth or no growth ([2]; 70°C, 10 ppm, day 6): −
growth or no growth ([2]; 70°C, 10 ppm, day 7): −
growth or no growth ([2]; 70°C, 10 ppm, day 8): −
growth or no growth ([2]; 70°C, 10 ppm, day 9): −
growth or no growth ([2]; 70°C, 10 ppm, day 10): −
growth or no growth ([2]; 70°C, 10 ppm, day 11): −
growth or no growth ([2]; 70°C, 10 ppm, day 12): −
growth or no growth ([2]; 70°C, 10 ppm, day 13): −
growth or no growth ([2]; 70°C, 10 ppm, day 14): −
germination ([2]; 75° C., 10 ppm natamycin): no germination occurred
growth or no growth ([2]; 75°C, 5 ppm, day 9): +
growth or no growth ([2]; 75°C, 5 ppm, day 10): +
germination ([2]; 85° C., both concentrations (5 and 10 ppm)): no germination occurred
germination ([2]; RT, 5 or 10 ppm natamycin): delayed germination
growth or no growth ([2]; RT, 10 ppm, day 1): −
growth or no growth ([2]; RT, 10 ppm, day 2): −
growth or no growth ([2]; RT, 10 ppm, day 3): −
growth or no growth ([2]; RT, 10 ppm, day 4): −
growth or no growth ([2]; RT, 10 ppm, day 5): −
growth or no growth ([2]; RT, 10 ppm, day 6): −
growth or no growth ([2]; RT, 10 ppm, day 7): +
growth or no growth ([2]; RT, 10 ppm, day 8): +
growth or no growth ([2]; RT, 10 ppm, day 9): +
growth or no growth ([2]; RT, 10 ppm, day 10): +
growth or no growth ([2]; RT, 10 ppm, day 11): +
growth or no growth ([2]; RT, 10 ppm, day 12): +
growth or no growth ([2]; RT, 10 ppm, day 13): +
growth or no growth ([2]; RT, 10 ppm, day 14): +

Reference: patent US12102089B2, “Method for inactivating mold spores” (DSM IP ASSETS B.V., priority 2017, dated 2024)
